In PubChem BioAssay AID504393 (Southern Research Specialized Biocontainment Screening …, 2011):
The source made the active and inactive calls. The rule behind the calls is not given here.

Test system: MAGI cells cytotoxicity, % cell control, 2% serum
Test: MAGI cell cytotoxicity in HIV-1 antiviral work, dose response, cytotoxicity control for HIV-1 antiviral lead project, MAGI cells, 2% serum, TC50 (AID 504393)

SMILES | TC50
Cc1ccc(-n2cccc2/C=C2/C(=N)N3C(=NC2=O)SN=C3S(C)(=O)=O)cc1C | 48.9 µM
O=C(O)CCCN1C(=O)/C(=C/c2cc3ccccc3o2)SC1=S | 83.6 µM
COc1cccc(-n2cccc2/C=C2/C(=N)N3C(=NC2=O)SN=C3S(C)(=O)=O)c1 | 57.6 µM
CS(=O)(=O)C1=NSC2=NC(=O)/C(=C\c3cccn3-c3cccc(Cl)c3)C(=N)N21 | > 100 µM (inactive)
CCOC(=O)C1=C(C)N=c2sc(=Cc3ccc(OCC(=O)O)cc3)c(=O)n2C1c1ccccc1 (centres undefined) | > 100 µM (inactive)
CCOC(=O)C1=C(C)N=c2sc(=Cc3ccc(OCC(=O)O)cc3)c(=O)n2C1c1ccc(OC)cc1OC (centres undefined) | > 100 µM (inactive)
COc1ccc(Cn2c(O)cc3nn(-c4nc5ccccc5s4)c(=O)c-3c2C)cc1 | 56.3 µM
CCOC(=O)C1=C(C)N=c2sc(=Cc3ccc(OCC(=O)O)cc3)c(=O)n2C1c1cc(OC)c(OC)c(OC)c1 (centres undefined) | > 100 µM (inactive)
COc1ccc(-c2ccc(/C=C3\SC(=S)N(CCCC(=O)O)C3=O)o2)cc1 | > 100 µM (inactive)
COc1ccc(-n2cccc2/C=C2/C(=N)N3C(=NC2=O)SN=C3S(C)(=O)=O)cc1Cl | 42.4 µM
Nc1sc2ccccc2[n+]1Cc1ccc(C(=O)O)cc1 | > 100 µM (inactive)
COc1ccccc1Cn1c(O)cc2nn(-c3nc4ccccc4s3)c(=O)c-2c1C | 45.7 µM
O=C(O)CCCN1C(=O)/C(=C/c2ccc(-c3ccc(Cl)c(Cl)c3)o2)SC1=S | 11.7 µM
O=C(O)CCC(C(=O)O)N1C(=O)/C(=C\c2ccco2)SC1=S (centres undefined) | > 100 µM (inactive)
Cc1ccc(-c2ccc(/C=C3\SC(=S)N(CCCC(=O)O)C3=O)o2)cc1 | > 100 µM (inactive)
Cc1c2c(=O)n(-c3nc4ccccc4s3)nc-2cc(O)n1CCC(C)C | 65.1 µM
O=C(O)CCCN1C(=O)/C(=C/c2ccc(-c3cccc(C(F)(F)F)c3)o2)SC1=S | > 100 µM (inactive)
CCOC(=O)C1=C(C)N=c2sc(=Cc3ccc(OCC(=O)O)cc3)c(=O)n2C1c1ccccc1OC (centres undefined) | > 100 µM (inactive)
CS(=O)(=O)C1=NSC2=NC(=O)/C(=C\c3cccn3-c3cc(Cl)cc(Cl)c3)C(=N)N21 | 36.5 µM
Cc1c2c(=O)n(-c3nc4ccccc4s3)nc-2cc(O)n1CCc1ccc(O)cc1 | 37.6 µM

SMILES | TC50
CCc1ccc(-c2ccc(/C=C3\SC(=S)N(CCCC(=O)O)C3=O)o2)cc1 | > 100 µM (inactive)
CCc1ccc(-n2cccc2/C=C2/C(=N)N3C(=NC2=O)SN=C3S(C)(=O)=O)cc1 | 49.7 µM
O=C(O)CCCN1C(=O)/C(=C\c2ccc(-c3cccc(Cl)c3)o2)SC1=S | 40 µM
Cc1c2c(=O)n(-c3nc4ccccc4s3)nc-2cc(O)n1Cc1ccccc1Cl | 82 µM
CCOC(=O)C1=C(C)N=c2s/c(=C\c3ccc(OCC(=O)O)cc3)c(=O)n2C1c1ccc(Cl)cc1 (centres undefined) | > 100 µM (inactive)
CCOc1ccc(-n2cccc2/C=C2/C(=N)N3C(=NC2=O)SN=C3S(C)(=O)=O)cc1 | 42.6 µM
COc1cccc(C2C(C(=O)Nc3ccccc3)=C(C)N=c3sc(=Cc4ccc(OCC(=O)O)cc4)c(=O)n32)c1 (centres undefined) | > 100 µM (inactive)
CC1=C(C(=O)OC(C)C)C(c2ccc(Cl)cc2)n2c(s/c(=C\c3ccc(OCC(=O)O)cc3)c2=O)=N1 (centres undefined) | > 100 µM (inactive)
CS(=O)(=O)C1=NSC2=NC(=O)/C(=C\c3cccn3-c3ccc(F)cc3)C(=N)N21 | > 100 µM (inactive)
CS(=O)(=O)C1=NSC2=NC(=O)/C(=C\c3cccn3-c3ccc(Cl)c(Cl)c3)C(=N)N21 | 56.7 µM
Cc1c2c(=O)n(-c3nc4ccccc4s3)nc-2cc(O)n1Cc1ccncc1 | 85.9 µM
O=C(O)c1ccc([C@@H]2Nc3ccc(S(=O)(=O)Nc4cccc5ccccc45)cc3[C@@H]3C=CC[C@@H]32)cc1 | 54.8 µM
CCOC(=O)C1=C(c2ccccc2)N=c2s/c(=C\c3ccc(OCC(=O)O)cc3)c(=O)n2C1c1cccc(OC)c1 (centres undefined) | 57.5 µM
COc1ccc(CCn2c(O)cc3nn(-c4nc5ccccc5s4)c(=O)c-3c2C)cc1 | > 100 µM (inactive)
CCOC(=O)C1=C(C)N=c2s/c(=C\c3ccc(OCC(=O)O)cc3)c(=O)n2C1c1ccc(OC)c(OCC)c1 (centres undefined) | > 100 µM (inactive)
Cc1c2c(=O)n(-c3nc4ccccc4s3)nc-2cc(O)n1Cc1ccc(F)cc1 | 70.4 µM
Cc1c2c(=O)n(-c3nc4ccccc4s3)nc-2cc(O)n1Cc1cccnc1 | 99.2 µM
CS(=O)(=O)C1=NSC2=NC(=O)/C(=C\c3cccn3-c3cccc(C(F)(F)F)c3)C(=N)N21 | 79.5 µM
O=C(O)c1ccc(C[n+]2c(-c3ccccc3)csc2Nc2ccccc2)cc1 | 80.6 µM
